Assay results published in patent US20250163104A1, “MACROCYCLIC IMMUNOMODULATORS” (priority 2021, published 2025).
Where a SMILES comes first, the peptide text is derived from it. Bridges are numbered along the chain shown (N, C = ends). [ ]: non-standard residue; d: D form. The star is where a group is joined. ξ: configuration not given here. Phe(4-COOH) = N[C@@H](Cc1ccc(C(=O)O)cc1)C(=O)O; Bip = N[C@@H](Cc1ccc(-c2ccccc2)cc1)C(=O)O; Phe(3-Me) = Cc1cccc(C[C@H](N)C(=O)O)c1; Val(3-OH) = CC(C)(O)[C@H](N)C(=O)O; hPhe = N[C@@H](CCc1ccccc1)C(=O)O; ξW = NC(Cc1c[nH]c2ccccc12)C(=O)O; 3Pal = N[C@@H](Cc1cccnc1)C(=O)O; 4Pal = N[C@@H](Cc1ccncc1)C(=O)O; Cha = N[C@@H](CC1CCCCC1)C(=O)O; Cit = NC(=O)NCCC[C@H](N)C(=O)O; Ile(3ξ) = CCC(C)[C@H](N)C(=O)O; Tle = CC(C)(C)[C@H](N)C(=O)O; Carboxymethyl = O=C(O)C*; Nle = CCCC[C@H](N)C(=O)O; Orn = NCCC[C@H](N)C(=O)O; Pra = C#CC[C@H](N)C(=O)O; Dab = NCC[C@H](N)C(=O)O; Dap = NC[C@H](N)C(=O)O; X9 = c1cn(CCCN*)cn1

biological target: T1, human PD-1 / PD-L1-Ig binding on Jurkat cell line over-expressing human PD-1 (Jurkat-PD-1) (Homo sapiens, UniProt Q15116); test: Jurkat-PD-1 Cell Binding High-Content Screening Assay (CBA); type: cell-based; conditions: Jurkat-PD-1 cells, PE-labeled PD-L1-Ig 20 nM final; read-out: Jurkat HPD1_PDL1 IC50
T1 construct: expressed in transfected cells; host or cells: Jurkat
In short: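 PE-PD-L1-Ig 20 nM final; cells in DMEM/10% FCS; cpd pre-incubation 2 h, 37° C; ligand 1 h; PFA fix + Hoechst 33342; high-content imaging read-out.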

T1 sequence (Q15116 25-288): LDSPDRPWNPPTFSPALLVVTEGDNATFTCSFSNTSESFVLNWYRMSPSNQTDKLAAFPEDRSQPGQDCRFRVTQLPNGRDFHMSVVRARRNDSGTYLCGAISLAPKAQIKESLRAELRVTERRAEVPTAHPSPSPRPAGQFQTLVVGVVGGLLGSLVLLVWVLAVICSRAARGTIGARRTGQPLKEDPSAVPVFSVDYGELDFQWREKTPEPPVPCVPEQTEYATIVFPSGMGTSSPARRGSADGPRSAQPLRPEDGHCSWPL

SMILES	IC50 [nM]
CC(C)C[C@@H]1NC(=O)[C@H](CCN)NC(=O)[C@@H](CC(C)C)NC(=O)[C@H](CCN)NC(=O)[C@H](CCC(=O)O)NC(=O)[C@H](Cc2ccc(-c3ccccc3)cc2)NC(=O)[C@H](C(C)C)NC(=O)[C@H](Cc2c[nH]c3ccccc23)NC(=O)[C@H](CC(=O)O)NC(=O)[C@H](Cc2ccc(OCC(=O)O)cc2)NC(=O)[C@H](Cc2ccc(OCC(=O)O)cc2)NC(=O)CSC[C@@H](C(=O)N[C@@H](C)C(N)=O)NC(=O)[C@H](CO)NC(=O)[C@H](C(C)C)NC1=O [Compound 1268] ({CH2CO}-Y(Carboxymethyl)Y(Carboxymethyl)DWV[Bip]E[Dab][dL][Dab]LVSCA-NH2; thioether N-14)	24.6
CC[C@H](C)[C@@H]1NC(=O)[C@H](Cc2ccc(-c3ccccc3)cc2)NC(=O)[C@H](C(C)C)NC(=O)[C@H](Cc2c[nH]c3ccccc23)NC(=O)[C@H](CC(=O)O)NC(=O)[C@H](Cc2ccc(O)cc2)NC(=O)[C@H](CN)NC(=O)CSC[C@@H](C(=O)N[C@@H](C)C(N)=O)NC(=O)[C@H]([C@@H](C)O)NC(=O)[C@H](C(C)C)NC(=O)[C@H](CC2CCCCC2)NC(=O)[C@H](CCN)NC(=O)[C@@H](CC(C)C)NC(=O)[C@H](CCCN)NC1=O [Compound 1159]	8.1
CC(C)C[C@@H]1NC(=O)C(Cc2c[nH]c3ccccc23)NC(=O)[C@H](CC(=O)O)NC(=O)[C@H](Cc2ccc(O)cc2)NC(=O)[C@H](Cc2ccccc2)NC(=O)CSC[C@@H](C(=O)N[C@@H](C)C(N)=O)NC(=O)[C@H](CO)NC(=O)[C@H](C(C)C)NC(=O)[C@H](CC(C)C)NC(=O)[C@H](CC(N)=O)NC(=O)[C@@H](CC(C)C)NC(=O)[C@H](CCN)NC(=O)[C@H](C(C)C)NC(=O)[C@H](Cc2ccc(-c3ccccc3)cc2)NC1=O (stereo partly drawn) [Compound 1214] ({CH2CO}-FYD[ξW]L[Bip]V[Dab][dL]NLVSCA-NH2; thioether N-14)	14.1
C#CC[C@H](NC(=O)[C@@H](C)NC(=O)[C@@H]1CSCC(=O)N[C@@H](Cc2c[nH]cn2)C(=O)N[C@@H](Cc2ccc(OCC(=O)O)cc2)C(=O)N[C@@H](CC(=O)O)C(=O)N[C@@H](Cc2c[nH]c3ccccc23)C(=O)N[C@@H](C(C)C)C(=O)N[C@@H](Cc2ccc(-c3ccccc3)cc2)C(=O)N[C@@H](C(C)C)C(=O)N[C@@H](CCCN)C(=O)N[C@H](CC(C)C)C(=O)N[C@@H](CCN)C(=O)N[C@@H](CC2CCCCC2)C(=O)N[C@@H](C(C)(C)O)C(=O)N[C@@H](CO)C(=O)N1)C(N)=O [Compound 2327] ({CH2CO}-HY(Carboxymethyl)DWV[Bip]V[Orn][dL][Dab][Cha][Val(3-OH)]SC[dA][Pra]-NH2; thioether N-14)	8.5
CC(C)C[C@H]1NC(=O)[C@H](CCCN)NC(=O)[C@H](CCCNC(N)=O)NC(=O)[C@H](Cc2ccc(-c3ccccc3)cc2)NC(=O)[C@H](C(C)C)NC(=O)[C@H](Cc2c[nH]c3ccccc23)NC(=O)[C@H](CC(=O)O)NC(=O)[C@H](CCc2ccccc2)NC(=O)[C@H](CN)NC(=O)CSC[C@@H](C(=O)N[C@@H](C)C(N)=O)NC(=O)[C@H]([C@@H](C)O)NC(=O)[C@H](C(C)C)NC(=O)[C@H](CC2CCCCC2)NC(=O)[C@H](CCN)NC1=O [Compound 2126] ({CH2CO}-[Dap][hPhe]DWV[Bip][Cit][Orn][dL][Dab][Cha]VTCA-NH2; thioether N-14)	7.9
CC(C)C[C@@H]1NC(=O)[C@H](Cc2c[nH]c3ccccc23)NC(=O)[C@H](CC(=O)O)NC(=O)[C@H](Cc2ccc(OCC(=O)O)cc2)NC(=O)[C@H](CN)NC(=O)CSC[C@@H](C(=O)NCC(N)=O)NC(=O)[C@H](CO)NC(=O)[C@H](C(C)C)NC(=O)[C@H](CC2CCCCC2)NC(=O)[C@H](CCN)NC(=O)[C@@H](CC(C)C)NC(=O)[C@H](CCCN)NC(=O)[C@H](C(C)C)NC(=O)[C@H](Cc2ccc(-c3ccccc3)cc2)NC1=O [Compound 1403] ({CH2CO}-[Dap]Y(Carboxymethyl)DWL[Bip]V[Orn][dL][Dab][Cha]VSCG-NH2; thioether N-14)	5.9
Cc1cccc(C[C@@H]2NC(=O)[C@H](CC(=O)O)NC(=O)[C@H](Cc3ccc(OCC(=O)O)cc3)NC(=O)[C@H](CN)NC(=O)CSC[C@@H](C(=O)N[C@@H](C)C(=O)O)NC(=O)[C@H]([C@@H](C)O)NC(=O)[C@H](C(C)C)NC(=O)[C@H](CC3CCCCC3)NC(=O)[C@H](CCN)NC(=O)[C@@H](CC(C)C)NC(=O)[C@H](CCCN)NC(=O)[C@H](CCCNC(N)=O)NC(=O)[C@H](Cc3ccc(-c4ccccc4)cc3)NC(=O)[C@H](C(C)C)NC2=O)c1 [Compound 1300]	5
CCCC[C@@H]1NC(=O)[C@H](CCN)NC(=O)[C@@H](CC(C)C)NC(=O)[C@H](CCCN)NC(=O)[C@H](C(C)C)NC(=O)[C@H](Cc2ccc(-c3ccccc3)cc2)NC(=O)[C@H](CC(C)C)NC(=O)[C@H](Cc2c[nH]c3ccccc23)NC(=O)[C@H](CC(=O)O)NC(=O)[C@H](Cc2ccc(OCC(=O)O)cc2)NC(=O)[C@H](Cc2ccc(OCC(=O)O)cc2)NC(=O)CSC[C@@H](C(=O)NCC(N)=O)NC(=O)[C@H](CO)NC(=O)[C@H](C(C)C)NC1=O [Compound 1409] ({CH2CO}-Y(Carboxymethyl)Y(Carboxymethyl)DWL[Bip]V[Orn][dL][Dab][Nle]VSCG-NH2; thioether N-14)	16.8
Cc1cccc(C[C@@H]2NC(=O)[C@H](CC(=O)O)NC(=O)[C@H](Cc3ccc(C(=O)O)cc3)NC(=O)[C@H](Cc3ccncc3)NC(=O)CSC[C@@H](C(=O)N[C@@H](CCN)C(N)=O)NC(=O)[C@H](CO)NC(=O)[C@H](C(C)(C)C)NC(=O)[C@H](CC3CCCCC3)NC(=O)[C@H](CCN)NC(=O)[C@@H](CC(C)C)NC(=O)[C@H](CCCN)NC(=O)[C@H](Cc3ccc(OCC(=O)O)cc3)NC(=O)[C@H](Cc3ccc(-c4ccccc4)cc3)NC(=O)[C@H](Cc3ccc(OCC(=O)O)cc3)NC2=O)c1 [Compound 2294] ({CH2CO}-[4Pal][Phe(4-COOH)]D[Phe(3-Me)]Y(Carboxymethyl)[Bip]Y(Carboxymethyl)[Orn][dL][Dab][Cha][Tle]SC[Dab]-NH2; thioether N-14)	9.4
Cc1cccc(C[C@@H]2NC(=O)[C@H](CC(=O)O)NC(=O)[C@H](Cc3ccc(C(=O)O)cc3)NC(=O)[C@H](Cc3ccncc3)NC(=O)CSC[C@@H](C(=O)N[C@@H](CO)C(N)=O)NC(=O)[C@H](CCC(N)=O)NC(=O)[C@H](C(C)C)NC(=O)[C@H](CC3CCCCC3)NC(=O)[C@H](CCN)NC(=O)[C@@H](CC(C)C)NC(=O)[C@H](CCCN)NC(=O)[C@H](Cc3ccc(OCC(=O)O)cc3)NC(=O)[C@H](Cc3ccc(-c4ccccc4)cc3)NC(=O)[C@H](Cc3ccc(OCC(=O)O)cc3)NC2=O)c1 [Compound 2312] ({CH2CO}-[4Pal][Phe(4-COOH)]D[Phe(3-Me)]Y(Carboxymethyl)[Bip]Y(Carboxymethyl)[Orn][dL][Dab][Cha]VQCS-NH2; thioether N-14)	7.9
Cc1cccc(C[C@@H]2NC(=O)[C@H](CC(=O)O)NC(=O)[C@H](Cc3ccc(C(=O)O)cc3)NC(=O)[C@H](CN)NC(=O)CSC[C@@H](C(=O)N[C@@H](C)C(=O)NCCCn3ccnc3)NC(=O)[C@H]([C@@H](C)O)NC(=O)[C@H](C(C)C)NC(=O)[C@H](CC(C)C)NC(=O)[C@H](CCN)NC(=O)[C@@H](CC(C)C)NC(=O)[C@H](CCCN)NC(=O)[C@H](C(C)C)NC(=O)[C@H](Cc3ccc(-c4ccccc4)cc3)NC(=O)[C@H](C(C)C)NC2=O)c1 [Compound 2005] ({CH2CO}-[Dap][Phe(4-COOH)]D[Phe(3-Me)]V[Bip]V[Orn][dL][Dab]LVTCA-X9; thioether N-14)	5.1
CC(C)C[C@H]1NC(=O)[C@H](CCCN)NC(=O)[C@H](C(C)C)NC(=O)[C@H](Cc2ccc(-c3ccccc3)cc2)NC(=O)[C@H](C(C)C)NC(=O)[C@H](Cc2c[nH]c3ccccc23)NC(=O)[C@H](CC(=O)O)NC(=O)[C@H](Cc2ccc(OCC(=O)O)cc2)NC(=O)[C@H](CN)NC(=O)CSC[C@@H](C(=O)N[C@@H](C)C(N)=O)NC(=O)[C@H](CCCNC(=N)N)NC(=O)[C@H](C(C)C)NC(=O)[C@H](CC2CCCCC2)NC(=O)[C@H](CCN)NC1=O [Compound 1747] ({CH2CO}-[Dap]Y(Carboxymethyl)DWV[Bip]V[Orn][dL][Dab][Cha]VRCA-NH2; thioether N-14)	6.4
CC(C)C[C@H]1NC(=O)[C@H](CCCN)NC(=O)[C@H](CCCCN)NC(=O)[C@H](Cc2ccc(-c3ccccc3)cc2)NC(=O)[C@H](C(C)C)NC(=O)[C@H](Cc2c[nH]c3ccccc23)NC(=O)[C@H](CC(=O)O)NC(=O)[C@H](Cc2ccc(OCC(=O)O)cc2)NC(=O)[C@H](CN)NC(=O)CSC[C@@H](C(=O)N[C@@H](C)C(N)=O)NC(=O)[C@H]([C@@H](C)O)NC(=O)[C@H](C(C)C)NC(=O)[C@H](CC2CCCCC2)NC(=O)[C@H](CCN)NC1=O [Compound 1377] ({CH2CO}-[Dap]Y(Carboxymethyl)DWV[Bip]K[Orn][dL][Dab][Cha]VTCA-NH2; thioether N-14)	8.9
CCCC[C@@H]1NC(=O)[C@H](CCN)NC(=O)[C@@H](CC(C)C)NC(=O)[C@H](CCCN)NC(=O)[C@H](C(C)C)NC(=O)[C@H](Cc2ccc(-c3ccccc3)cc2)NC(=O)[C@H](CC(C)C)NC(=O)[C@H](Cc2c[nH]c3ccccc23)NC(=O)[C@H](CC(=O)O)NC(=O)[C@H](Cc2ccncc2)NC(=O)[C@H](Cc2ccc(OCC(=O)O)cc2)NC(=O)CSC[C@@H](C(=O)NCC(N)=O)NC(=O)[C@H](CO)NC(=O)[C@H](C(C)C)NC1=O [Compound 1411] ({CH2CO}-Y(Carboxymethyl)[4Pal]DWL[Bip]V[Orn][dL][Dab][Nle]VSCG-NH2; thioether N-14)	9.5
CCC(C)[C@@H]1NC(=O)[C@H](Cc2ccc(-c3ccccc3)cc2)NC(=O)[C@H](C(C)C)NC(=O)[C@H](Cc2c[nH]c3ccccc23)NC(=O)[C@H](CC(=O)O)NC(=O)[C@H](Cc2cccnc2)NC(=O)[C@H](CN)NC(=O)CSC[C@@H](C(=O)N[C@@H](C)C(N)=O)NC(=O)[C@H]([C@@H](C)O)NC(=O)[C@H](C(C)C)NC(=O)[C@H](CC2CCCCC2)NC(=O)[C@H](CCN)NC(=O)[C@@H](CC(C)C)NC(=O)[C@H](CCCN)NC1=O (stereo partly drawn) [Compound 2230] ({CH2CO}-[Dap][3Pal]DWV[Bip][Ile(3ξ)][Orn][dL][Dab][Cha]VTCA-NH2; thioether N-14)	16.1
